Source: patent publication US20240108753A1, “NUCLEIC ACID DELIVERY” (NUNTIUS THERAPEUTICS LIMITED, priority 2021, published 2024)

Assays:
[1] = Hydrodynamic size, polydispersity index and zeta potential of dendrimer, lipid and mRNA complexes; assay type: physicochemical; settings: DOTMA/DOPE w/w 10:1 to mRNA; for Hydrodynamic size: dendrimer, lipid and mRNA complexes
Procedure: The hydrodynamic size, polydispersity index and Zeta potential was determined for a set of the dendrimers disclosed in Tables 1 and 2.

[2] = system: HeLa cells; experiment: mRNA (eGFP) transfection with peptide dendrimers and DOTMA/DOPE in full growth medium; assay type: cell-based, human; settings: HeLa; full growth medium; DOTMA/DOPE w/w 10:1 to mRNA; relative to G1,2-RL, 3-LR
Procedure: FIG. 28. mRNA transfection of the peptide dendrimers with lipid system in vitro. […] The mRNA used expressed an eGFP reporter gene. Following a 24 hour transfection, the cells were harvested to assay the eGFP expression. The eGFP expression was normalised with the total amount of protein of each transfection. The gene expression level was calculated by normalising the transfection value of the G1,2-RL, 3-LR, DOTMA/DOPE & mRNA treated cells. 1st, 2nd and 3rd generation dendrimers with varying cores and 1st, 2nd, and 3rd generation peptide motifs can transfect cells with mRNA effectively under the tested conditions.
FIG. 29. mRNA transfection of the peptide dendrimers with lipid system in vitro. HeLa cells were transfected with mRNA alone or mRNA with peptide dendrimers and DOTMA/DOPE (w/w=10:1 to mRNA). The N:P ratio of G1,2-RL,3-LR was at 0.16:1 while the N:P ratios of all other dendrimers at 8:1. The mRNA used expressed an eGFP reporter gene. Following a 24 hour transfection, the cells were harvested to assay the eGFP expression. The eGFP expression was normalised with the total amount of protein of each transfection. The gene expression level was calculated by normalising the transfection value of the G1,2-RL, 3-LR, DOTMA/DOPE & mRNA treated cells. 1st, 2nd and 3rd generation dendrimers with varying cores and 1st, 2nd, and 3rd generation peptide motifs can transfect cells with mRNA effectively under the tested conditions.
The effect on the number of generations of dendrimers on mRNA delivery was studied by transfecting HeLa cells in full growth medium conditions.

Substance | Polydispersity Index (PDI) ([1]; N:P 0.16:1) | Zeta Potential ([1]; N:P 0.16:1) [mV] | Polydispersity Index (PDI) ([1]; N:P 8:1) | Zeta Potential ([1]; N:P 8:1) [mV] | Hydrodynamic size ([1]; N:P 0.16:1) [nm] | Hydrodynamic size ([1]; N:P 8:1) [nm] | mRNA transfection efficiency (eGFP), in words [2]
(BR)8(KRB)4(KRX)2KGSC-NH2 [G1-RX, 2-RB, 3-BR] | 0.108 | 41 | 0.403 | 56 | 130 | 70 | –
(FR)8(KRQ)4(KRW)2KGSC-NH2 [G1-RW, 2-RQ, 3-FR] | 0.146 | 37 | 0.452 | 51 | 133 | 105 | –
(HK)8(KKH)4(KKL)2KGSC-NH2 [G1-KL, 2-KH, 3-HK] | 0.237 | 35 | 0.126 | 49 | 131 | 103 | –
(LR)2KRHC-NH2 [RHCG1-LR] | 0.107 | 40 | 0.577 | 35 | 129 | 326 | can transfect cells effectively
(LR)8(DabRL)4(DabRL)2DabGSC-NH2 [DabG1,2-RL, 3-LR] | 0.117 | 34 | 0.286 | 57 | 124 | 78 | –
(LR)8(KR)4(KRLR)2KRHC-NH2 [RHCG1-RLR, 2-R, 3-LR] | 0.136 | 41 | 0.439 | 59 | 121 | 75 | –
(LR)8(KR)4(KRLRL)2KRHC-NH2 [RHCG1-RLRL, 2-R, 3-LR] | 0.131 | 43 | 0.37 | 56 | 135 | 78 | –
(LR)8(KRL)4(KRE)2KGSC-NH2 [G1-RE, 2-RL, 3-LR] | 0.096 | 45 | 0.158 | 53 | 134 | 96 | –
(LR)8(KRL)4(KRL)2KGSCRHCRFWRYM-NH2 [LinearG1,2-RL, 3-LR] | 0.143 | 42 | 0.289 | 54 | 118 | 62 | transfection efficiency was not affected
(LRLR)2KGSC-NH2 [G1-LRLR] | 0.264 | 40 | 0.581 | 49 | 122 | 250 | –
(LRLR)4(KLRLR)2KGSC-NH2 [G1,2-LRLR] | 0.181 | 41 | 0.189 | 53 | 130 | 92 | –
(LRLR)8(KLRLR)4(KLRLR)2KGSC-NH2 [G1,2,3-LRLR] | 0.133 | 45 | 0.287 | 50 | 130 | 80 | –
(MR)8(KRC)4(KRC)2KGSC-NH2 [G1-RC, 2-RC, 3-MR] | 0.148 | 43 | 0.19 | 56 | 121 | 87 | –
(QR)8(KRT)4(KRY)2KGSC-NH2 [G1-RY, 2-RT, 3-QR] | 0.16 | 42 | 0.178 | 52 | 126 | 95 | –
(R)8(KRL)4(KRLR)2KRHC-NH2 [RHCG1-RLR, 2-RL, 3-R] | 0.219 | 36 | 0.429 | 59 | 119 | 83 | –
(RL)8(KLR)4(KLR)2KGSC-NH2 [G1,2-LR,3-RL] | 0.144 | 32 | 0.242 | 54 | 137 | 89 | –
(RL)8(KRL)4(KLR)2KGSC-NH2 [G1-LR,2,3-RL] | 0.136 | 41 | 0.417 | 53 | 132 | 80 | –
(RLR)2KRHC-NH2 [RHCG1-RLR] | 0.363 | 41 | 0.766 | – | 105 | 183 | –
(WR)8(KRM)4(KRF)2KGSC-NH2 [G1-RF, 2-RM, 3-WR] | 0.125 | 41 | 0.277 | 51 | 142 | 80 | –
(YR)8(KRT)4(KRQ)2KGSC-NH2 [G1-RQ, 2-RT, 3-YR] | 0.135 | 41 | 0.409 | 54 | 130 | 100 | –
(lR)8(KrL)4(kRl)2KGSC-NH2 [G1-Rl, 2-rL, 3-lR] | 0.22 | 42 | 0.241 | 56 | 135 | 74 | –
(lr)8(Krl)4(Krl)2Kgsc-NH2 [LK-G1,2-rl, 3-lr] | 0.16 | 45 | 0.251 | 53 | 132 | 74 | –
(lr)8(krl)4(krl)2kgsc-NH2 [D-G1,2-rl, 3-lr] | 0.148 | 43 | 0.246 | 53 | 134 | 73 | –

Now from value to substance, other results behind:

Polydispersity Index (PDI) ([1]; N:P 0.16:1) | Zeta Potential ([1]; N:P 0.16:1) [mV] | Polydispersity Index (PDI) ([1]; N:P 8:1) | Zeta Potential ([1]; N:P 8:1) [mV] | Hydrodynamic size ([1]; N:P 0.16:1) [nm] | Hydrodynamic size ([1]; N:P 8:1) [nm] | Substance | mRNA transfection efficiency (eGFP), in words [2]
0.136 | 47 | 0.184 | 51 | 125 | 76 | (LR)8(KRL)4(KRL)2KA-NH2 [KAG1,2-RL, 3-LR] | –
0.152 | 39 | 0.401 | 55 | 120 | 91 | (LR)8(KRL)4(KRL)2KRFW-NH2 [RFWG1,2-RL, 3-LR] | –
0.11 | 44 | 0.363 | 50 | 134 | 58 | (LR)8(KRL)4(KRL)2KRHC-NH2 [RHCG1,2-RL,3-LR] | –
0.137 | 43 | 0.257 | 56 | 133 | 68 | (LR)8(KRL)4(KRL)2KRYM-NH2 [RYMG1,2-RL, 3-LR] | –
0.116 | 35 | 0.213 | 56 | 117 | 73 | (LR)8(KRL)4(KRL)2KYM-NH2 [YMG1,2-RL, 3-LR] | –
0.173 | 43 | 0.396 | 62 | 125 | 70 | (R)8(KR)4(KR)2KRHC-NH2 [RHCG1,2,3-R] | –
0.154 | 39 | 0.214 | – | 116 | 83 | (RLR)4(KRLR)2KRHC-NH2 [RHCG1,2-RLR] | –
0.154 | 42 | 0.299 | 56 | 130 | 73 | (RLR)8(KRLR)4(KRLR)2KRHC-NH2 [RHCG1,2,3-RLR] | –
